# Experimental data as given in patent publication EP1175222B1, “MONTHLY DOSES OF GLYCOPEPTIDE ANTIBIOTICS FOR LONG-TERM PREVENTION OF STREPTOCOCCUS PNEUMONIAE INFECTIONS” (ELI LILLY AND COMPANY, priority 1999, dated 2000).
# Where two headings read alike, the source gives them in different places.
# Experiments:
# Streptococcus pneumoniae = test: MIC90 by NCCLS broth microdilution against a worldwide collection of Streptococcus pneumoniae; format: cell-based
# Experimental: (§1) The term "MIC" or "minimum inhibitory concentration" refers to the lowest concentration of the agent that prevents visible growth after 18 to 24 hours of incubation. "MIC90" refers to the lowest concentration of the agent that prevents 90% growth after 18 to 24 hours of incubation. "MBC" or "minimal bactericidal concentration" refers to the lowest concentration that results in a 99.9% decline in bacterial numbers. Although the value of the MBC as a clinical test has not been established, it may be useful in special instances where very precise knowledge of the ability of a given antimicrobial agent to kill a specific clinical isolate is critical, as in the therapy of bacterial endocarditis.
# Table 1 lists the in vitro activity of N^DISACC-(4-(4-chlorophenyl)benzyl)A82846B and other compounds against a worldwide collection of Streptococcus pneumoniae. N^DISACC-(4-(4-chlorophenyl)benzyl)A82846B clearly demonstates a significant improvement against all three strains. […]
# MICs were determined using NCCLS broth microdilution methodology (see, Fasola E., Spangler SK., Ednie LM., Jacobs MR., Bajaksouzian S., and Appelbaum PC., "Comparative activities of LY 333328 against penicillin-susceptible and -resistant pneumococci" Antimicrobial Agents & Chemotherapy, 40(11), 2661-3 (1996)).
# S aureus SA027 = test: Mouse protection model, intraperitoneal bacterial challenge; format: in vivo; conditions: mice; dose protecting 50% from lethal infection; two subcutaneous doses 1 and 5 hours after challenge
# Experimental: (§2) As listed in Table 2, N^DISACC-(4-(4-chlorophenyl)benzyl)A82846B appeared to have activity 30 to 40 times that of vancomycin when given subcutaneously to mice with systemic streptococcal or staphylococcal infections. […] In a murine model of systemic infection, various dosing regimens of N^DISACC-(4-(4-chlorophenyl)benzyl)A82846B administered subcutaneously were compared in animals inoculated intraperitoneally with either S pneumoniae or S aureus. The total dose ranged from 0.18 to 2.01 mg/kg body weight, subdivided into 1 to 24 doses during a 48-hour treatment period. Pharmacokinetic studies were performed in uninfected animals using a bioassay. Using multiple regression analysis to find the pharmacodynamic parameter associated with survival, time above the MIC appeared-to be more important (p<0.00001) than the maximum plasma concentration Cmax (p=0.01); however, for 1- and 2-dose regimens near the ED50, Cmax appeared to be the best predictor of outcome. A more detailed description of this study may be found in Knudsen, J., et al., "Pharmacodynamics of glycopeptides in Animal Models" Abstracts of the 20th International Congress of Chemotherapy, Abstract No. 4076, June (1997). […]
# S pneumoniae Park I = test: as above; format: in vivo; conditions: mice; dose protecting 50% from lethal infection; two subcutaneous doses 1 and 5 hours after challenge
# Experimental: as §2
# S pyogenes C-203 = test: as above; format: in vivo; conditions: mice; dose protecting 50% from lethal infection; two subcutaneous doses 1 and 5 hours after challenge
# Experimental: as §2
# [1] = Safety and pharmacokinetics of single intravenous doses in eight healthy men; format: in vivo
# Experimental: An open-label, uncontrolled, dose-escalation study was conducted with eight healthy men. All subjects were between 22 and 50 years of age and within 10% of their ideal body weights. Single does, ranging from 0.5 mg/kg body weight to 3 mg/kg body weight, were administered intravenously over 30 minutes. Plasma samples were collected just prior to the start of infusion and at intervals for 336 hours after the end of the infusion for assessment of drug concentration, biochemical and hematologic parameters. N^DISACC-(4-(4-chlorophenyl)benzyl) A82846B plasma and urine concentrations were determined by HPLC and competitive binding radioimmunoassay, respectively. Individual plasma concentration-time profiles were evaluated based on compartmental analysis techniques.
# [2] = design: species or system mice; conditions: mouse, in vivo, sc
# Experimental: as §2
# S.pneumoniae = test: In vitro time-kill curves; format: cell-based; conditions: 10 mg/l
# Experimental: (§3) At 12 h after infection, they were treated with a single dose of N^DISACC-(4-(4-chlorophenyl)benzyl)A82846B [1 mg/kg (n = 5), 2.5 mg/kg (n = 5), 10 mg/kg (n = 10), […] (n = 2)] . N^DISACC-(4-(4-chlorophenyl)benzyl)A82846B was dissolved in 5% glucose and infused over 30 min. Controls received a bolus of ceftriaxone (20 mg/kg body weight) followed by a continuous infusion of 10 mg/kg/h (n = 12). The cerebrospinal fluid (CSF) was drawn at 12, 14, 17, 20, and 24h for the determination of bacterial titers, leukocyte densities, lipoteichoic/teichoic acid, lactate and protein concentrations. The concentration of the neuron-specific enolase in CSF was measured at 24h. Bactericidal activity in CSF was estimated by log-linear regression of bacterial titers versus time. Additionally, time-kill curves were performed with 10 mg/l N^DISACC-(4-(4-chlorophenyl)benzyl)A82846B.
# [3] = system: penicillin-sensitive S. pneumoniae type 3 strain; test: MIC and MBC for the meningitis model strain; format: cell-based; conditions: penicillin-sensitive type 3 strain
# Experimental: as §1
# as §3, with “Bactericidal activity in CSF was estimated by log-linear regression of bacterial titers versus time. Additionally, time-kill curves were performed with 10 mg/l N^DISACC-(4-(4-chlorophenyl)benzyl)A82846B.” left out
# [4] = design: species or system rats; conditions: rat, in vivo, 5 mg/kg
# Excerpt: Although single doses of N^DISACC-(4-(4-chlorophenyl)benzyl)A82846B may provide high plasma concentrations for a prolonged period of time, it may also be highly desirable to maintain high concentrations in respiratory tissues (the main portal of initial tissue infection and invasion).
# [5] = system: penicillin-sensitive S. pneumoniae type 3 strain; test: In-vivo rabbit model of S. pneumoniae meningitis (CSF measurements); conditions: rabbits
# Experimental: as §3
# S. pneumoniae = test: Neutropenic model of S. pneumoniae bacteremia in mice; format: in vivo; conditions: subcutaneously or intravenously at doses ≥ 5 mg/kg body weight
# [6] = Intermediate N = 40 (penicillin-intermediate by NCCLS criteria)
# [7] = Resistant N = 42 (penicillin-resistant by NCCLS criteria)
# [8] = Streptococcus pneumoniae, Intermediate N = 40 (penicillin-intermediate by NCCLS criteria), read-out: MIC90
# [9] = Streptococcus pneumoniae, Resistant N = 42 (penicillin-resistant by NCCLS criteria), read-out: MIC90
# [10] = Streptococcus pneumoniae, Sensitive N = 50 (penicillin-sensitive by NCCLS criteria), read-out: MIC90
# [11] = healthy men, single i.v. dose 0.5 to 3 mg/kg over 30 minutes
# [12] = healthy men, single i.v. dose 0.5 to 3 mg/kg over 30 minutes, normalized to dose and weight
# [13] = Sensitive N = 50 (penicillin-sensitive by NCCLS criteria)
# [14] = estimated by Lineweaver-Burk plot
molecule,measurement,setting,value
CN[C@H](CC(C)C)C(=O)N[C@H]1C(=O)N[C@@H](CC(N)=O)C(=O)N[C@H]2C(=O)N[C@H]3C(=O)N[C@H](C(=O)N[C@H](C(=O)O)c4cc(O)cc(O)c4-c4cc3ccc4O)[C@H](O)c3ccc(c(Cl)c3)Oc3cc2cc(c3O[C@@H]2O[C@H](CO)[C@@H](O)[C@H](O)[C@H]2O[C@H]2C[C@](C)(N)[C@H](O)[C@H](C)O2)Oc2ccc(cc2Cl)[C@H]1O [Vancomycin],MIC90,Streptococcus pneumoniae; [6],0.5 µg/mL
same,MIC90,Streptococcus pneumoniae; [7],0.5 µg/mL
same,MIC90,Streptococcus pneumoniae; Streptococcus pneumoniae,0.5 µg/mL
same,ED50,S aureus SA027,0.70 mg/kg/dose
same,ED50,S pneumoniae Park I,1-1 mg/kg/dose
same,ED50,S pyogenes C-203,0.80 mg/kg/dose
C[C@@H](O)[C@H]1C(=O)N2C(C(=O)O)=C(SCCN=CN)C[C@H]12 [Imipenem],MIC90,Streptococcus pneumoniae; [8],0.125 µg/mL
same,MIC90,Streptococcus pneumoniae; [9],0.5 µg/mL
same,MIC90,Streptococcus pneumoniae; [10],0.03 µg/mL
CN[C@H](CC(C)C)C(=O)N[C@H]1C(=O)N[C@@H](CC(N)=O)C(=O)N[C@H]2C(=O)N[C@H]3C(=O)N[C@H](C(=O)N[C@H](C(=O)O)c4cc(O)cc(O)c4-c4cc3ccc4O)[C@H](O[C@H]3C[C@](C)(N)[C@@H](O)[C@H](C)O3)c3ccc(c(Cl)c3)Oc3cc2cc(c3O[C@@H]2O[C@H](CO)[C@@H](O)[C@H](O)[C@H]2O[C@H]2C[C@](C)(N)[C@@H](O)[C@H](C)O2)Oc2ccc(cc2Cl)[C@H]1O [A82846B],ED50,S pneumoniae Park I,0.18 mg/kg/dose
same,ED50,S pyogenes C-203,0.18 mg/kg/dose
N^DISACC-(4-(4-chlorophenyl)benzyl)A82846B Diphosphate,"% dose excreted in urine, Mean (%CV)",[1]; [11],3.1 (42) %
same,"T1/2, Mean (%CV)",[1]; [11],251 (96) hr
same,"AUC0-∞, Mean (%CV)",[1]; [12],201 (62) (µg hr/ml)/(mg/kg)
same,"Cmax, Mean (%CV)",[1]; [12],16.5 (20) (µg/ml)/(mg/kg)
same,"Clp, Mean (%CV)","[1]; healthy men, single i.v. dose 0.5 to 3 mg/kg over 30 minutes, plasma clearance",0.0896 (30) ml/min/kg
same,"Vss, Mean (%CV)","[1]; healthy men, single i.v. dose 0.5 to 3 mg/kg over 30 minutes, steady-state volume of distribution",1.08 (45) 1/kg
CO[C@H]1/C=C/O[C@@]2(C)Oc3c(C)c(O)c4c(O)c(c(/C=N/N5CCN(C)CC5)c(O)c4c3C2=O)NC(=O)/C(C)=C\C=C\[C@H](C)[C@H](O)[C@@H](C)[C@@H](O)[C@@H](C)[C@H](OC(C)=O)[C@@H]1C [Rifampin],MIC90,Streptococcus pneumoniae; [8],0.015 µg/mL
same,MIC90,Streptococcus pneumoniae; [9],> 8 µg/mL
same,MIC90,Streptococcus pneumoniae; [10],0.03 µg/mL
N^DISACC-(4-(4-chlorophenyl)benzyl)A82846B,MIC90,Streptococcus pneumoniae; [6],0.015 µg/mL
same,MIC90,Streptococcus pneumoniae; [7],0.03 µg/mL
same,MIC90,Streptococcus pneumoniae; [13],0.008 µg/mL
same,absorption following subcutaneous administration,[2],absorbed poorly
same,time until S.pneumoniae killed / cultures sterile,S.pneumoniae,≤ 1 h
same,MBC,[3],0.03 µg/mL
same,MIC,[3],0.015 µg/mL
same,lung tissue half life,[4],29 days
same,ED50,S aureus SA027,0.009 mg/kg/dose
same,ED50,S pneumoniae Park I,0.028 mg/kg/dose
same,ED50,S pyogenes C-203,0.045 mg/kg/dose
same,mean concentration of the neuron-specific enolase in CSF at 24h,"[5]; 10 mg/kg body weight, parameter of neuronal damage, p = 0.14 vs ceftriaxone",92.3 ± 68.7
same,half-maximal dose (KD),[5]; [14],5.3 mg/kg body weight
same,maximum bactericidal rate (Emax),[5]; [14],-0.88 Δlog CFU/ml/h
same,"bactericidal activity in CSF, Δlog CFU/ml/h ± SD",[5]; single dose of 1 mg/kg body weight (only bacteriostatic),0.01 ± 0.11 Δlog CFU/ml/h
same,"bactericidal activity in CSF, Δlog CFU/ml/h ± SD",[5]; single dose of 2.5 mg/kg,-0.26 ± 0.22 Δlog CFU/ml/h
same,"bactericidal activity in CSF, Δlog CFU/ml/h ± SD",[5]; single dose of 10 mg/kg body weight 12 h after infection,-0.29 ± 0.21 Δlog CFU/ml/h
same,"Protein, lactate and lipoteichoic/teichoic acid concentrations in CSF",[5]; single dose of 10 mg/kg body weight compared with ceftriaxone 10 mg/kg/h,no significant differences
same,"bactericidal activity in CSF, Δlog CFU/ml/h",[5]; single dose of 40 mg/kg,-0.52 ± 0.02 Δlog CFU/ml/h
same,terminal t1/2,"[1]; healthy men, single i.v. doses, to be interpreted cautiously",10.5 days
same,area under the terminal phase as share of total AUC0-∞,"[1]; human, in vivo, iv",approximately 50%
same,effect on bacteremia,S. pneumoniae,eliminated bacteremia
Teicoplanin,MIC90,Streptococcus pneumoniae; [6],0.06 µg/mL
same,MIC90,Streptococcus pneumoniae; [7],0.06 µg/mL
same,MIC90,Streptococcus pneumoniae; [13],0.06 µg/mL
CC1(C)S[C@@H]2[C@H](NC(=O)Cc3ccccc3)C(=O)N2[C@H]1C(=O)O [Penicillin G],MIC90,Streptococcus pneumoniae; [6],1.0 µg/mL
same,MIC90,Streptococcus pneumoniae; [7],4.0 µg/mL
same,MIC90,Streptococcus pneumoniae; [13],0.06 µg/mL
CO/N=C(\C(=O)N[C@@H]1C(=O)N2C(C(=O)O)=C(CSc3nc(=O)c(=O)[nH]n3C)CS[C@H]12)c1csc(N)n1 [Ceftriaxone],MIC90,Streptococcus pneumoniae; [8],0.5 µg/mL
same,MIC90,Streptococcus pneumoniae; [9],2 µg/mL
same,MIC90,Streptococcus pneumoniae; [10],0.06 µg/mL
same,time until S.pneumoniae killed / cultures sterile,S.pneumoniae,12 h
same,"bactericidal activity in CSF, Δlog CFU/ml/h ± SD",[5]; bolus 20 mg/kg body weight then continuous infusion of 10 mg/kg/h,-0.33 ± 0.15 Δlog CFU/ml/h
